For assay [1], the system named is Staphylococcus aureus. In words: Antibacterial activity against methicillin-susceptible Staphylococcus aureus ATCC 1112 after 18 hr by NCCLS dilution tube method. Conditions: for MIC: ATCC 1112, 18 h. The assay is classed as functional.
Assay [2] deals with Pseudomonas aeruginosa. The assay can be described thus: Antibacterial activity against Pseudomonas aeruginosa at > 1000 uM after 18 hr by NCCLS dilution tube method. The assay is classed as functional, organism-based.
The test system of assay [3] is Klebsiella pneumoniae. The assay can be described thus: Antibacterial activity against Klebsiella pneumoniae at > 1000 uM after 18 hr by NCCLS dilution tube method. The format is functional, organism-based.
Assay [4] deals with Staphylococcus aureus. In words: Antibacterial activity against methicillin-resistant Staphylococcus aureus after 18 hr by NCCLS dilution tube method. The format is functional.
The test system of a further assay is Streptococcus pyogenes. In words: Antibacterial activity against Streptococcus pyogenes after 18 hr by NCCLS dilution tube method. The assay is classed as functional.
Another assay deals with Streptococcus pneumoniae. The assay can be described thus: Antibacterial activity against Streptococcus pneumoniae after 18 hr by NCCLS dilution tube method. The assay is classed as functional.
Assay [5] deals with Klebsiella pneumoniae. The assay can be described thus: Antibacterial activity against Klebsiella pneumoniae after 18 hr by NCCLS dilution tube method. The assay is classed as functional.
Assay [6] concerns Pseudomonas aeruginosa. In words: Antibacterial activity against Pseudomonas aeruginosa after 18 hr by NCCLS dilution tube method. The assay is classed as functional.

The structures appear in SMILES notation. ≈ marks a conversion by molar mass, not a printed value. Calls of active or inactive are those of the source. No cut-off for these calls is given here.

By MIC is commonly meant the lowest concentration found to suppress growth. Low readings indicate inhibition by little substance, high ones a need for much substance.

`N#Cc1cnn(-c2ccc([N+](=O)[O-])cc2[N+](=O)[O-])c1NC(=O)c1ccccc1`: the MIC against Staphylococcus aureus [1] came to 132 µM (≈ 50 µg/mL); in the assay with Staphylococcus aureus [4], 264 µM (≈ 100 µg/mL). Besides, the outcome with Pseudomonas aeruginosa [2] and in the assay with Klebsiella pneumoniae [3] was inactive.

Regarding `CC(=O)Nc1c(C#N)cnn1-c1ccc([N+](=O)[O-])cc1[N+](=O)[O-]`, the MIC was found to be 316 µM (≈ 99.9 µg/mL) with Staphylococcus aureus [1], 100 µg/mL (≈ 316 µM) in the assay with Streptococcus pyogenes, 100 µg/mL (≈ 316 µM) in the assay with Streptococcus pneumoniae and 632 µM (≈ 200 µg/mL) in the assay on Staphylococcus aureus [4]. Also, the result with Pseudomonas aeruginosa [2] and in the assay on Klebsiella pneumoniae [3] was inactive.

Turning to `COc1ccc(C(=O)Nc2c(C#N)cnn2-c2ccc([N+](=O)[O-])cc2[N+](=O)[O-])cc1`, the MIC in the assay with Staphylococcus aureus [1] came to 31.9 µM (≈ 13 µg/mL); with Staphylococcus aureus [4], 15.3 µM (≈ 6.25 µg/mL).

Turning to `CN(C)c1ccc(C(=O)Nc2c(C#N)cnn2-c2ccc([N+](=O)[O-])cc2[N+](=O)[O-])cc1`, the MIC against Staphylococcus aureus [1] and against Staphylococcus aureus [4] was 3.8 µM (≈ 1.6 µg/mL) each time.

As for `Cc1onc(-c2ccccc2Cl)c1C(=O)N[C@@H]1C(=O)N2[C@@H]1SC(C)(C)[C@@H]2C(=O)O` [CLOXACILLIN], the MIC against Staphylococcus aureus [1] came out at 13.7 µM (≈ 5.97 µg/mL); against Staphylococcus aureus [4] it was 94 µM (≈ 41 µg/mL).

For the compound `N#Cc1cnn(-c2ccc([N+](=O)[O-])cc2[N+](=O)[O-])c1NC(=O)c1ccc(Cl)cc1`, the results for the MIC in the assay on Staphylococcus aureus [1] and in the assay with Staphylococcus aureus [4] were 15.3 µM (≈ 6.32 µg/mL) and 60.5 µM (≈ 25 µg/mL), respectively.

For the compound `N#Cc1cnn(-c2ccc([N+](=O)[O-])cc2[N+](=O)[O-])c1NC(=O)C1CCCCC1`, the MIC is 195 µM (≈ 75.1 µg/mL) with Staphylococcus aureus [1] and 391 µM (≈ 150 µg/mL) against Staphylococcus aureus [4]. Also, the result in the assay with Pseudomonas aeruginosa [2] and in the assay with Klebsiella pneumoniae [3] was inactive.

On to `N#Cc1cnn(-c2ccc([N+](=O)[O-])cc2[N+](=O)[O-])c1N`, for which the outcome with Staphylococcus aureus [1], with Streptococcus pyogenes and with Streptococcus pneumoniae was inactive.

As to `Cc1ccc(C(=O)Nc2c(C#N)cnn2-c2ccc([N+](=O)[O-])cc2[N+](=O)[O-])cc1`, the values for the MIC against Staphylococcus aureus [1] and in the assay on Staphylococcus aureus [4] were 60.5 µM (≈ 23.7 µg/mL) and 63.8 µM (≈ 25 µg/mL), respectively.

Take `CC1=C(C(=O)O)N2C(=O)[C@@H](NC(=O)[C@H](N)c3ccccc3)[C@H]2SC1` [CEPHALEXIN ANHYDROUS]: the MIC in the assay with Staphylococcus aureus [1] was 4.6 µM (≈ 1.6 µg/mL); in the assay on Staphylococcus aureus [4] it was 72 µM (≈ 25 µg/mL).

With `N#Cc1cnn(-c2ccc([N+](=O)[O-])cc2[N+](=O)[O-])c1NC(=O)c1ccc(F)cc1`, the results for the MIC in the assay on Staphylococcus aureus [1] and with Staphylococcus aureus [4] were 126 µM (≈ 50.1 µg/mL) and 252 µM (≈ 100 µg/mL), respectively.

`N#Cc1cnn(-c2ccc([N+](=O)[O-])cc2[N+](=O)[O-])c1NC(=O)C12CC3CC(CC(C3)C1)C2`: the minimum inhibitory concentration (MIC) was 57.4 µM (≈ 25.1 µg/mL) against Staphylococcus aureus [1], over 300 µM in the assay on Klebsiella pneumoniae [5], 57.4 µM (≈ 25.1 µg/mL) with Staphylococcus aureus [4] and over 300 µM in the assay with Pseudomonas aeruginosa [6].

Turning to `N#Cc1cnn(-c2ccc([N+](=O)[O-])cc2[N+](=O)[O-])c1NC(=O)c1ccc(Br)cc1`, the MIC against Staphylococcus aureus [1] and against Staphylococcus aureus [4] was 27.4 µM (≈ 12.5 µg/mL) throughout.

For the origin of these results see ChEMBL document CHEMBL3046829, “Design, synthesis, and structureactivity relationship study of 5-amido-1-(2,4-dinitrophenyl)-1H-4-pyrazolecarbonitrils as DD-carboxypeptidase/penicillin-binding protein inhibitors with Gram-positive antibacterial activity” (2010).
